The results in this text go back to PubChem BioAssay AID2060496 (Molecular Pharmacology Branch, DTP, NCI, 2025).

Values joined by “and” are separate entries in the source; they are usually repeats but may differ in a detail not shown here. Identical values can stand only once.

For this assay, the system named is 276233-004-R-J1-PDC complex spheroid viability. Briefly: Anticancer human tumor 276233-004-R-J1-PDC patient-derived colon adenocarcinoma cell line growth inhibition [GQUAD]. The settings on record: for viability, T/C: stronger effect = lower value. The text has this:
DNA G-quadruplex Stabilizer Agents in Combinations in Complex Spheroids
A high-throughput screen of multi-cell type tumor spheroids was designed to identify active combinations of DNA G-quadruplex stabilizer agents and targeted small molecules. Complex spheroids include a stromal component modeled by human endothelial cells (HUVEC) and fibroblasts modeled by human mesenchymal stem cells (MSCs). The concentration ranges selected for each drug and investigational agent were based upon clinically achievable concentrations if the clinical Cmax of the agent was known.
Compounds. The drugs and investigational agents: pidnarulex (CX-5461; NSC782164), APTO-253 (NSC789042), BRACO-19 (NSC847499), peposertib (NSC802822), ceralasertib (NSC780249), elimusertib (NSC800525), camonsertib (NSC841442), AZD-1390 (NSC803789), olaparib (NSC753686), talazoparib (NSC767125), ART-558 (NSC835418), sotorasib (NSC818433), MRTX-1133 (NSC836407), SN-38 (NSC673596), topotecan (NSC609699), etoposide (NSC141540), doxorubicin (NSC123127), gemcitabine (NSC613327), 5-fluorouracil (NSC19893), paclitaxel (NSC125973), vemurafenib (NSC761431), panobinostat (NSC761190), R-306465 (JNJ-16241199; NSC773264), adavosertib (NSC754352), TP-3654 (NSC805149), carboplatin (NSC241240), KSQ-4279 (NSC840948), and staurosporine (NSC755774) were obtained from the National Cancer Institute (NCI) Developmental Therapeutics Program Chemical Repository (34). The FDA-approved anticancer drug set is available from the NCI Developmental Therapeutics Program. […] The stock solutions were prepared in dimethyl sulfoxide (DMSO, Sigma-Aldrich, St. Louis, MO, cat. D2650) at 800-fold the tested concentration and stored at -70 degrees C prior to their use. All drugs and investigational agents were tested over a range starting from a high concentration at or near the clinical Cmax and decreasing in half-log increments. If the clinical Cmax for an agent had not been determined, the highest concentration tested was 10 microM.
2.3 Cell Culture. All cells were maintained in an incubator at 37 degrees C and 5% CO2 with 95% humidity. The PDC lines were cultured according to standard operating procedures established by the NCI PDMR. All PDCs were thawed and cultured in Matrigel-coated flasks prepared with a working solution of 1X Ham's F-12 nutrient mix, without supplementation (Invitrogen, cat. 11765054), 100 U/mL penicillin-streptomycin (Invitrogen, cat. 15140122), and 2.5% Matrigel (Corning Inc., cat. 354248) for the first three passages. The 857933-349-R-J2-PDC line was cultured in 6C/Colon 1B media, which includes advanced DMEM/F-12 (Thermo Fisher Scientific, cat. 12634028), 10 mM HEPES (Thermo Fisher Scientific, cat. 15630080), 1X GlutaMAX supplement (Thermo Fisher Scientific, cat. 35050061), 0.1 mg/mL primocin (InvivoGen, cat. ant-pm-2), 10% defined fetal bovine serum, heat inactivated (HyClone Laboratories Inc., cat. SH30070.03HI), 50% L-WRN conditioned media (ATCC, cat. CRL-3276), 1.25 mM N-Acetyl-L-cysteine (Sigma-Aldrich, cat. A9165), 10 mM nicotinamide (Sigma-Aldrich, cat. N0636), 1X B-27 supplement (Thermo Fisher Scientific, cat. 17504044), 1X N-2 supplement (Thermo Fisher Scientific, cat. 17502048), 10 microM Y-27632 dihydrochloride (Tocris Bioscience, cat. 1254), and 50 ng/mL human EGF recombinant protein (Thermo Fisher Scientific, cat. PHG0311). The 485176-168-R4-J1-PDC line was cultured in Panc media, which includes all 6C/Colon 1B media components plus 100 ng/mL human FGF-10 (Thermo Fisher Scientific, cat. 100-26), 500 nM SB-431542 (Selleckchem, cat. S1067), and gastrin (Tocris, cat. 3006).
[…]

Where [1] appears, read: curve of first compound, second compound 0.0316 µM.
The mark [2] stands for this setting: curve of first compound, second compound 0.1 µM.
Where [3] appears, read: curve of first compound, second compound 0.316 µM.
Setting [4] is: curve of first compound, second compound 1 µM.
The mark [5] stands for this setting: curve of first compound, second compound 3.16 µM.
The mark [6] stands for this setting: curve of first compound, second compound 10 µM.
Setting [7] is: second compound 0.0316 µM, first compound 0.0316 µM.
Setting [8] is: second compound 0.0316 µM, first compound 0.1 µM.
Setting [9] is: second compound 0.0316 µM, first compound 0.316 µM.
Where [10] appears, read: second compound 0.0316 µM, first compound 1 µM.
[11] abbreviates: second compound 0.0316 µM, first compound 3.16 µM.
Setting [12] is: second compound 0.0316 µM, first compound 10 µM.
Setting [13] is: second compound 0.1 µM, first compound 0.0316 µM.
The mark [14] stands for this setting: second compound 0.1 µM, first compound 0.1 µM.
Setting [15] is: second compound 0.1 µM, first compound 0.316 µM.
Setting [16] is: second compound 0.1 µM, first compound 1 µM.
Setting [17] is: second compound 0.1 µM, first compound 3.16 µM.
The mark [18] stands for this setting: second compound 0.1 µM, first compound 10 µM.
Where [19] appears, read: second compound 0.316 µM, first compound 0.0316 µM.
The mark [20] stands for this setting: second compound 0.316 µM, first compound 0.1 µM.
[21] abbreviates: second compound 0.316 µM, first compound 0.316 µM.
The mark [22] stands for this setting: second compound 0.316 µM, first compound 1 µM.
[23] abbreviates: second compound 0.316 µM, first compound 3.16 µM.
[24] abbreviates: second compound 0.316 µM, first compound 10 µM.
[25] abbreviates: second compound 1 µM, first compound 0.0316 µM.
Where [26] appears, read: second compound 1 µM, first compound 0.1 µM.
The mark [27] stands for this setting: second compound 1 µM, first compound 0.316 µM.
Setting [28] is: second compound 1 µM, first compound 1 µM.
[29] abbreviates: second compound 1 µM, first compound 3.16 µM.
[30] abbreviates: second compound 1 µM, first compound 10 µM.
[31] abbreviates: second compound 3.16 µM, first compound 0.0316 µM.
Where [32] appears, read: second compound 3.16 µM, first compound 0.1 µM.
Setting [33] is: second compound 3.16 µM, first compound 0.316 µM.
Setting [34] is: second compound 3.16 µM, first compound 1 µM.
Where [35] appears, read: second compound 3.16 µM, first compound 3.16 µM.
[36] abbreviates: second compound 3.16 µM, first compound 10 µM.
Where [37] appears, read: second compound 10 µM, first compound 0.0316 µM.
The mark [38] stands for this setting: second compound 10 µM, first compound 0.1 µM.
[39] abbreviates: second compound 10 µM, first compound 0.316 µM.
The mark [40] stands for this setting: second compound 10 µM, first compound 1 µM.
[41] abbreviates: second compound 10 µM, first compound 3.16 µM.
The mark [42] stands for this setting: second compound 10 µM, first compound 10 µM.
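Further: spheroids exposed to drugs for seven days.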

The term viability, T/C denotes the result in the treated group divided by that in the control group, in per cent. As usually defined, the IC50 is the point on the concentration scale where inhibition reaches its midpoint. Regarding `Nc1ccn(C2OC(CO)C(O)C2(F)F)c(=O)n1` (configuration not stated), the viability, T/C was 86.2% and 88.9% and 100% (compound 0.0316 µM); 76.2% and 97% and 92.5% (compound 0.1 µM); 76.6% and 97.1% and 85.7% (compound 0.316 µM); 69% and 83.3% and 72.7% (compound 1 µM); 83.3% and 79% and 97.7% (compound 3.16 µM); 71.6% and 68.4% and 75.5% (compound 10 µM). Also, the IC50 (curve of compound) was greater than 10000 nM.

Take `CC1COCCN1c1cc(-c2ccnn2C)c2ccnc(-c3ccn[nH]3)c2n1` (configuration not stated): the viability, T/C was 99.9% and 85.8% and 70.3% (compound 0.0316 µM); 85.9% and 83.5% and 72.1% (compound 0.1 µM); 83.8% and 82.2% and 60.7% (compound 0.316 µM); 68.7% and 82.9% and 70.1% (compound 1 µM); 77.7% and 57.3% and 56.7% (compound 3.16 µM); 58.9% and 53.9% and 47.2% (compound 10 µM). The IC50 (curve of compound) is > 10000 nM and 7410 nM.

For `COc1ncnc(C2CC2)c1-c1ncc2cnn(Cc3ccc(-c4nc(C(F)(F)F)cn4C(C)C)cc3)c2n1`, the viability, T/C by setting is: (compound 0.0316 µM) 86% and 85.2% and 92%; (compound 0.1 µM) 69% and 77.1% and 72.8%; (compound 0.316 µM) 84.5% and 105% and 85.5%; (compound 1 µM) 82% and 82.4% and 85.8%; (compound 3.16 µM) 94.6% and 92.9% and 82.1%; (compound 10 µM) 98% and 75.9% and 97.7%. The IC50 (curve of compound) was greater than 10000 nM.

In the case of `Cc1[nH]c2ccc(F)cc2c1-c1nc2c3cccnc3c3ncccc3c2[nH]1`, the viability, T/C is 80.8% [middle of 12 runs] (compound 0.316 µM), 73.4% [middle of 12 runs] (compound 1 µM) and 44.4% [middle of 12 runs] (compound 10 µM). Also, the IC50 runs as follows: (compound alone, run of 02/20/2024) 2.51 µM [middle of 8 runs]; (compound alone, run of 02/26/2024) 1.35 µM [middle of 4 runs].

Consider `C=CC(=O)N1CCN(c2nc(=O)n(-c3c(C)ccnc3C(C)C)c3nc(-c4c(O)cccc4F)c(F)cc23)C(C)C1` (configuration not stated) + Cc1cnc(CNC(=O)c2c(=O)c3ccc(N4CCCN(C)CC4)nc3n3c2sc2ccccc23)cn1, for which the IC50 is, setting by setting: under setting [1], greater than 10000 nM; under setting [2], greater than 10000 nM; under setting [3], greater than 10000 nM; under setting [4], greater than 10000 nM; under setting [5], greater than 10000 nM; under setting [6], greater than 10000 nM. The viability, T/C was 82.3% under setting [7]; 75.1% under setting [8]; 81.3% under setting [9]; 83.5% under setting [10]; 103% under setting [11]; 95.8% under setting [12]. The viability, T/C by setting is: under setting [13], 93.6%; under setting [14], 84.6%; under setting [15], 94.9%; under setting [16], 92.8%; under setting [17], 98.4%; under setting [18], 83.8%. Besides, the viability, T/C is 80.6% under setting [19]; 86.3% under setting [20]; 82.6% under setting [21]; 83.6% under setting [22]; 83.3% under setting [23]; 86.7% under setting [24]. Further, the viability, T/C is 76.3% under setting [25]; 71% under setting [26]; 88.9% under setting [27]; 108% under setting [28]; 79.5% under setting [29]; 89.5% under setting [30]. For the same compound, the viability, T/C reads like this: under setting [31], 75.1%; under setting [32], 74.9%; under setting [33], 77.1%; under setting [34], 73.4%; under setting [35], 77.7%; under setting [36], 83.5%. The viability, T/C was 62.7% under setting [37]; 68.9% under setting [38]; 75.6% under setting [39]; 61.6% under setting [40]; 80.3% under setting [41]; 68.8% under setting [42].

`O=C(NO)c1cnc(N2CCN(S(=O)(=O)c3ccc4ccccc4c3)CC2)nc1` + CN(C)c1ccc(Nc2c3ccc(NC(=O)CCN4CCCC4)cc3nc3cc(NC(=O)CCN4CCCC4)ccc23)cc1: the IC50 under setting [1] was determined as 564 nM; the IC50 under setting [2] amounted to 382 nM; the IC50 under setting [3] came out at 291 nM; the IC50 under setting [4] is 385 nM; the IC50 under setting [5] was 207 nM; the IC50 under setting [6] was less than 31.6 nM. The viability, T/C is, setting by setting: under setting [7], 97.6%; under setting [8], 110%; under setting [9], 93.9%; under setting [10], 6.51%; under setting [11], 1.16%; under setting [12], 0.86%. Besides, the viability, T/C by setting is: under setting [13], 77.9%; under setting [14], 138%; under setting [15], 59.3%; under setting [16], 5.11%; under setting [17], 0.78%; under setting [18], 1.12%. In addition, the viability, T/C under setting [19] is 61%; the viability, T/C under setting [20] was 90.4%; the viability, T/C under setting [21] was 48%; the viability, T/C under setting [22] is 4.4%; the viability, T/C under setting [23] was 1.75%; the viability, T/C under setting [24] is 1.22%. Further, the viability, T/C under setting [25] was 70%; the viability, T/C under setting [26] is 85.4%; the viability, T/C under setting [27] is 59.9%; the viability, T/C under setting [28] is 1.33%; the viability, T/C under setting [29] was 1.89%; the viability, T/C under setting [30] is 2.09%. For the same compound, the viability, T/C is 74.2% under setting [31]; 68.7% under setting [32]; 38.8% under setting [33]; 3.01% under setting [34]; 1.99% under setting [35]; 0.85% under setting [36]. Moreover, the viability, T/C reads like this: under setting [37], 35.5%; under setting [38], 45.6%; under setting [39], 25.5%; under setting [40], 5.18%; under setting [41], 1.04%; under setting [42], 1.85%.

Take `Cc1[nH]c2ccccc2c1CCNCc1ccc(/C=C/C(=O)NO)cc1`: the viability, T/C (compound 0.000999 µM) is 86.2% and 100% and 95.1%; the viability, T/C (compound 0.00316 µM) was 71% and 96.2% and 83.8%; the viability, T/C (compound 0.00999 µM) was 96.1% and 81.2% and 98.1%; the viability, T/C (compound 0.0316 µM) is 80.3% and 84% and 82.8%; the viability, T/C (compound 0.0999 µM) is 80.9% and 60.8% and 86.1%; the viability, T/C (compound 0.316 µM) is 19.3% and 31.7% and 41.9%. Also, the IC50 (curve of compound) is 178 nM and 155 nM and 257 nM.
